Patent US11091490B2, “3-amino-1,5-dihydro-pyrazolo[3,4-d]pyrimidin-4-ones as cyclin dependent kinase inhibitors” (Oncotyrol Center for Personalized Cancer Medicine GMBH, priority 2016, dated 2021)
“And” between values parts separate entries of the source, which are not always exact repeats. Equal entries are not always repeated. Where two headings read alike, the source gives them in different places.

Assays:
CDK16 = biological target: T1, CDK16 (Homo sapiens, UniProt Q00536); experiment: Target selectivity profile (DiscoverX KinomeScan) CDK16; format: binding
T1 construct: purchased DiscoverX
T1 sequence (Q00536 whole entry): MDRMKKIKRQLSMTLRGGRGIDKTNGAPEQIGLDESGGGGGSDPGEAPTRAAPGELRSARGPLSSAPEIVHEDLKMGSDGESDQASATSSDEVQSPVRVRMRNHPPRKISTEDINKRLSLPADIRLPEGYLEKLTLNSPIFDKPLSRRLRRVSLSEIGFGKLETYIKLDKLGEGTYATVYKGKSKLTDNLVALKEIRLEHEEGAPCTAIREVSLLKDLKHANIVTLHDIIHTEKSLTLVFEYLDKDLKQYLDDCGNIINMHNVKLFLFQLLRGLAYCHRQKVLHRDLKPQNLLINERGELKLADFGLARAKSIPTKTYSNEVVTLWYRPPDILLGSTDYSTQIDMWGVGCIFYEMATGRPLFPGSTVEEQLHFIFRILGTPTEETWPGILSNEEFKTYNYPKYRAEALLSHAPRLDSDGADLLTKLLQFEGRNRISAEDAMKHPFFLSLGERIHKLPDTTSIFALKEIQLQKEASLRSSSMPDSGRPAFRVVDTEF
Excerpt: (§1) 3. Target Selectivity Profile (DiscoverX KinomeScan)
(§2) According to an analysis of kinase inhibitory selectivity carried out in accordance with Karaman M W et al., Nat Biotechnol. 2008 January; 26(1):127-32. doi: 10.1038/nbt1358.

[1] = system: LP-1 multiple myeloma cells; experiment: PARP cleavage Western blot LP1; format: cell-based; conditions: LP1, 24 h, 100 nM, FIG. 1B legend 0.08 μM
Excerpt: (§3) In order to investigate the mode of action (MOA) related to the antitumor activity of the compounds of the present invention (in particular compound 86) in solid tumors and multiple myeloma, two experimental strategies were used to confirm the postulated MOA: 1) monitoring of apoptosis induction and 2) cell cycle analysis upon treatment with compound 86. Three cancer cell lines (LP-1, (multiple myeloma cells, DSMZ ACC 41), A375 (melanoma cells), and HeLa (cervix carcinoma cells)) as well as control cells (HS-5 bone marrow stroma cells, ATCC CRL-11882) were used to obtain mechanistic insight into the antitumor activity of compound 86.
(§4) Annexin V staining and Poly(ADP-ribose)-Polymerase 1 (PARP) protein cleavage was analyzed to identify a pro-apoptotic effect of compound 86 on tumor cells in accordance with the method of Koopman G, et. al. Blood 1994; 1; 84(5):1415-20. Annexin V allows the identification of cell surface changes that occur early during the apoptotic process by in situ detection, which is ideal for the analysis with adherent cells. Cleavage of PARP-1 by caspases is considered to be a hallmark of apoptosis and was therefore applied to monitor apoptosis induction after 24 h of treatment with 100 nM of compound 86.

CDK7 = biological target: T2, CDK7 (Homo sapiens, UniProt P50613); experiment: Target selectivity profile (DiscoverX KinomeScan) CDK7; format: binding
T2 construct: purchased DiscoverX
T2 sequence (P50613 whole entry): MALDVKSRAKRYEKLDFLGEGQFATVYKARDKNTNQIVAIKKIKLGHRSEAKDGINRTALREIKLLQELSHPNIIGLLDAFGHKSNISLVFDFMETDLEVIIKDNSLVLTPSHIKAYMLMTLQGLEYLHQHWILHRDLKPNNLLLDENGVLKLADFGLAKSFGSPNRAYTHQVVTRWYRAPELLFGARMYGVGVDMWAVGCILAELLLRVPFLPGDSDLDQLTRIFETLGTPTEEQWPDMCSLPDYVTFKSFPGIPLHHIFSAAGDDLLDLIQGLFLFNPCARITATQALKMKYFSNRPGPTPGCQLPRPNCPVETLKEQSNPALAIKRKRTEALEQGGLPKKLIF
Excerpt: as §1, §2

PBMC control cells = experiment: In vitro proliferation screening (Sulforhodamin B) PBMC control cells; format: cell-based; conditions: 72 h
Procedure: (§5) Six 10-fold dilutions of compound 86 have been prepared in DMSO, from 5×10^−9 M to 5×10^−4. Single data points have been tested for each concentration. The final concentration of DMSO was 0.1%. The duration of the treatment was 72 hours. The growth inhibition was measured by using Sulforhodamin B, a protein-staining assay in accordance with Vichai V et. al. Nat. Protoc. 2006; 1(3):1112-6. Activity of the agents was determined by evaluating the following parameters: IC50, GI50, IC10, GI10, TGI, LC50, IC90 and GI90 (if these values could be calculated).

RPMI-8226/GN1 = experiment: Multiple myeloma cells in mono- and co-culture with osteoblasts, imaging based detection (RPMI-8226); format: cell-based
Procedure: Compound 86 has been compared with the key compound of WO 2000/21926 A2 (Example 121) in an imaging based detection system.
Two different multiple myeloma (MM) cell lines (RPMI-8226 (DSMZ, ACC 402), NCI-H929 DSMZ, ACC 163) have been used and were cultured in mono- and co-culture with osteoblasts (OB) (Osteoblasts were obtained by culturing hMSCs with a differentiation inducing medium for two weeks) in accordance with the method of Karadag A. et al. Journal of Bone and Mineral Research Vol. 15, No. 10, 2000 page 1935-43.

A375 melanoma cells [2] = experiment: Annexin V/PI staining A375; format: cell-based; conditions: A375, 0.1 μM, 12 h and 24 h
Excerpt: as §3, §4

UO31 (kidney) = experiment: In vitro proliferation screening (Sulforhodamin B) UO31; format: cell-based, human; conditions: UO31, 72 h
Excerpt: (§6) In order to evaluate the antitumor activity of the compounds of the present invention, in particular compound 86, in solid tumors, an in vitro proliferation screening in a panel of 10 different human cancer cell lines derived from solid tumors (see Table 5, below) as a model system.
as §5

HCT116 (colon) = experiment: In vitro proliferation screening (Sulforhodamin B) HCT116; format: cell-based, human; conditions: HCT116, 72 h
Excerpt: as §6, §5

COLO205 (colon) = experiment: In vitro proliferation screening (Sulforhodamin B) COLO205; format: cell-based, human; conditions: COLO205, 72 h, unit M
Excerpt: as §6, §5

[3] = biological target: human ether-a-go-go-related gene (hERG)-encoded K+ channel (Homo sapiens, UniProt Q12809); experiment: Medium-throughput electrophysiology based hERG assay; format: cell-based
Chain of human ether-a-go-go-related gene (hERG)-encoded K+ channel (Q12809 whole entry): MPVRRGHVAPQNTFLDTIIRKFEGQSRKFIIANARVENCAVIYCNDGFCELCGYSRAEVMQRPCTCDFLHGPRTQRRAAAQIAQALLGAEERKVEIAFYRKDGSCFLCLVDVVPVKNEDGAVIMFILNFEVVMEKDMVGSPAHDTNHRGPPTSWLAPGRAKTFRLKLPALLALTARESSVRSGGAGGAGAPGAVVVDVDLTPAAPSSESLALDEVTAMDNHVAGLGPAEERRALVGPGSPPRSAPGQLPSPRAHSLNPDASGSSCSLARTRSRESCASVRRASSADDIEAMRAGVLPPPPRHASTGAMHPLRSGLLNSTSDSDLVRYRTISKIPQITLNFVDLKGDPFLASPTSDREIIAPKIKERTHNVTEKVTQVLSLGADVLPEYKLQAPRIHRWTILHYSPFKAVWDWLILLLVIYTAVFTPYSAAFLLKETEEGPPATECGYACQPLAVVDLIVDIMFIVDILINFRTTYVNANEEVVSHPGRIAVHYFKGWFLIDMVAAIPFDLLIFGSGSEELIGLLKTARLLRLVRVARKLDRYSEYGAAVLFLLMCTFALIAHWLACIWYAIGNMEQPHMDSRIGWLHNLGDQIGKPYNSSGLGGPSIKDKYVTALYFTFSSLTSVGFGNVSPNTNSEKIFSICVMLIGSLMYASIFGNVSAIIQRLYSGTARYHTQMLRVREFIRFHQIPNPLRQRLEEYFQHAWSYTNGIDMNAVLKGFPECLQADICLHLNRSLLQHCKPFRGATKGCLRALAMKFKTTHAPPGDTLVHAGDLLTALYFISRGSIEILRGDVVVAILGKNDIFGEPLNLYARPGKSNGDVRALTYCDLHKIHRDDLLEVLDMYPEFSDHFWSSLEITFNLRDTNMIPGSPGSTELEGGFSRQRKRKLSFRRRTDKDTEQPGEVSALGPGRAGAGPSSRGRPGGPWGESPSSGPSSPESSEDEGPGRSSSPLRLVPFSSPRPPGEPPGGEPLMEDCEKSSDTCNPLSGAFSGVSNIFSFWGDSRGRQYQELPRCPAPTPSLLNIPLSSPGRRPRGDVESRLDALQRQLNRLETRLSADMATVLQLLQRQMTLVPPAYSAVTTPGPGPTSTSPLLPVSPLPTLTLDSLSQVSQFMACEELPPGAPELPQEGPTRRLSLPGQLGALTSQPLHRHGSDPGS
Excerpt: In a medium-throughput electrophysiology based hERG assay carried out in accordance with Bridgland-Taylor M H et al., J Pharmacol Toxicol Methods. 2006 September-October; 54(2):189-99. Epub 2006 Mar. 6.

[4] = system: HeLa cervix carcinoma cells; experiment: PARP cleavage Western blot HeLa; format: cell-based; conditions: 24 h, 100 nM, FIG. 1B legend 0.08 μM
Excerpt: as §3, §4

Pharmacokinetic studies = conditions: in vivo
Excerpt: Pharmacokinetic studies on the compounds of the present invention have been carried out in accordance with Endele R and Senn M., Int. J. Mass Spectrom. Ion Phys. 1983 January; 48:81-84. doi:10.1016/0020-7381(83)87033-8.

A375 melanoma cells [5] = experiment: Cell cycle analysis (propidium iodide FACS) A375; format: cell-based
Excerpt: as §3
Measuring of DNA content in cells is a well-established method for monitoring cell proliferation, cell cycle, fragmentation of nuclei (apoptosis) and DNA ploidy. Proliferating cells progress through various phases of the cell cycle (G0, G1, S, G2, and M phase). At different stages of the cell cycle and life cycle, cell nuclei contain different amounts of DNA. The DNA content in cell nuclei was analyzed by propidium iodide (PI) staining and FACS analysis after 12 and 24 h of treatment with 100 nM of compound 86 in accordance with the method of Desai Brijal M. et. al. PLOS Vol. 8; Issue 3; p. 1-11, 2013.

[6] = system: HeLa cervix carcinoma cells; experiment: Annexin V/PI staining HeLa; format: cell-based; conditions: 0.1 μM, 12 h and 24 h
Excerpt: as §3, §4

Structure (SMILES): CCN(CC)CC(=O)Nc1ccc(Cc2nc3c(c(N(C)C)nn3-c3c(Cl)cc(S(N)(=O)=O)cc3Cl)c(=O)[nH]2)cc1 [Compound 86, N-{4-[1-(2,6-Dichloro-4-sulfamoyl-phenyl)-3-dimethylamino-4-oxo-4,5-dihydro-1H-pyrazolo[3,4-d]pyrimidin-6-ylmethyl]-phenyl}-2-diethylamino-acetamide]
- kinase inhibitory selectivity: CDK16 (CDK16): active as inhibitors
- PARP cleavage [1]: specific induction of PARP cleavage
- PARP cleavage ([1]; listed as Otviciclib): induction of PARP cleavage
- kinase inhibitory selectivity: CDK7 (CDK7): active as inhibitors
- response to treatment (growth inhibition) (PBMC control cells): resistant
- EC50 (RPMI-8226/GN1; Homo sapiens, RPMI-8226, RPMI-8226/GN1, co-culture with osteoblasts, read-out: co-culture (+ OB) EC50): 140 nM
- EC50 (RPMI-8226/GN1; Homo sapiens, RPMI-8226, RPMI-8226/GN1, mono-culture, read-out: mono-culture EC50): 140 nM
- EC50 (RPMI-8226/GN1; RPMI-8226/GN1, co-culture with osteoblasts, read-out: co-culture (+ OB) EC50): 220 nM and 180 nM
- EC50 (RPMI-8226/GN1; RPMI-8226/GN1, mono-culture, read-out: mono-culture EC50): 190 nM and 120 nM
- induction of apoptosis (Annexin V/PI staining) (A375 melanoma cells [2]): specific induction of apoptosis
- induction of apoptosis (Annexin V/PI staining) (A375 melanoma cells [2]; listed as Otviciclib): reproducible induction of apoptosis
- GI50 (UO31 (kidney); Homo sapiens, UO-31, unit M): 339 nM
- IC50 (UO31 (kidney); Homo sapiens, UO-31, unit M): 360 nM
- growth inhibitory response in words (UO31 (kidney)): responded rather weakly in the micromolar range
- GI50 (HCT116 (colon); unit M): 5.82 nM
- GI50 (HCT116 (colon); Homo sapiens, HCT-116, 72 h, rounded value of the conclusions): 5.8 nM
- GI50 (HCT116 (colon); Homo sapiens, HCT-116, 72 h, unit M): 5.82 nM
- IC50 (HCT116 (colon); Homo sapiens, HCT-116, unit M): 6.05 nM
- GI50 (COLO205 (colon)): 20.9 nM
- GI50 (COLO205 (colon); Homo sapiens, COLO 205, 72 h): 21 nM
- IC50 (COLO205 (colon); Homo sapiens, COLO 205): 24.2 nM
- inhibitory activity on hERG K+ channel [3]: did not display any inhibitory activity
- PARP cleavage [4]: specific induction of PARP cleavage
- PARP cleavage ([4]; listed as Otviciclib): induction of PARP cleavage
- oral bioavailability (Pharmacokinetic studies): display oral bioavailability
- cell cycle profile (DNA content) (A375 melanoma cells [5]; A375, 0.1 μM, 12 and 24 h (FIG. 1A)): cell cycle defects and a progressive enrichment of the sub G1 group
- cell cycle profile (DNA content) (A375 melanoma cells [5]; A375, 100 nM, 12 h): G2/M arrest
- cell cycle profile (DNA content) (A375 melanoma cells [5]; A375, 100 nM, 24 h): started to enrich in the sub_G1 fraction
- induction of apoptosis (Annexin V/PI staining) [6]: specific induction of apoptosis
- induction of apoptosis (Annexin V/PI staining) ([6]; listed as Otviciclib): reproducible induction of apoptosis
